According to a compilation of properties of binary mixtures (doi:10.1016/j.molliq.2020.112754):

Test: xn = mol fraction of the nth substance listed
Conditions: 100 kPa

CCCC[n+]1ccccc1.O=S(=O)([N-]S(=O)(=O)C(F)(F)F)C(F)(F)F + Cc1ccccc1
viscosity [mPa·s]
Conditions | x2 = 0 | x2 = 0.0994 | x2 = 0.2022 | x2 = 0.2939 | x2 = 0.3972 | x2 = 0.5025 | x2 = 0.6068 | x2 = 0.7033
293.15 K | 68.9 | 54.2 | 41.67 | 31.52 | – | 15.1 | – | 6.11
298.15 K | – | 42.92 | 33.54 | 25.9 | 19 | – | 9.09 | 5.53
303.15 K | 41.94 | 34.61 | 27.6 | – | 16.23 | 11.99 | 8.21 | 5.19
308.15 K | 33.75 | 28.44 | 22.89 | 18.36 | – | – | 7.48 | 4.96
313.15 K | 27.63 | 23.67 | 19.28 | 15.83 | – | 9.23 | – | 4.293

CCCCCC[N+]1(C)CCCC1.O=S(=O)([N-]S(=O)(=O)C(F)(F)F)C(F)(F)F + Cc1ccccc1
viscosity [mPa·s]
Conditions | x2 = 0 | x2 = 0.0942 | x2 = 0.1943 | x2 = 0.29 | x2 = 0.3938 | x2 = 0.493 | x2 = 0.5961 | x2 = 0.6986 | x2 = 0.7993
293.15 K | 136.2 | 103.1 | 77.3 | 55.6 | – | 24.39 | 14.74 | 8.36 | –
298.15 K | 102.8 | 79.3 | 61.2 | 44.91 | 30.92 | 20.68 | 12.89 | 7.61 | 3.838
303.15 K | 79.6 | 62.3 | 48 | 36.7 | 25.95 | 17.85 | – | 6.93 | 3.477
308.15 K | 63.1 | 50.2 | 39.6 | – | 22.17 | 15.66 | 10.64 | 6.49 | –
313.15 K | – | 40.96 | 32.72 | 25.67 | 19.3 | 14.05 | 9.54 | 5.88 | 2.944

Cc1ccccc1 + CCCC[n+]1ccccc1.O=S(=O)([N-]S(=O)(=O)C(F)(F)F)C(F)(F)F
x1 = 1
Conditions | viscosity [mPa·s]
293.15 K | 0.598
298.15 K | 0.569
303.15 K | 0.539
308.15 K | 0.509
313.15 K | 0.485

CCCC[N+]1(C)CCCC1.O=S(=O)([N-]S(=O)(=O)C(F)(F)F)C(F)(F)F + Cc1ccccc1
viscosity [mPa·s]
Conditions | x2 = 0 | x2 = 0.1093 | x2 = 0.1978 | x2 = 0.3041 | x2 = 0.3965 | x2 = 0.5054 | x2 = 0.6027 | x2 = 0.7066
293.15 K | 90.2 | 66.9 | 51.5 | 36.61 | 26 | 17.04 | 11.02 | 6.26
298.15 K | – | 52.3 | 41.5 | 29.96 | 21.88 | – | – | 5.73
303.15 K | 56.2 | 42.87 | 34.07 | – | – | 13.06 | 9.11 | 5.28
308.15 K | 45.8 | 34.88 | 28.4 | 21.58 | 16.48 | 11.86 | 8.4 | 5.05
313.15 K | – | 29.43 | 24.08 | – | – | 10.63 | 7.58 | –

Cc1ccccc1 + CCCC[N+]1(C)CCCC1.O=S(=O)([N-]S(=O)(=O)C(F)(F)F)C(F)(F)F
x1 = 1
Conditions | viscosity [mPa·s]
293.15 K | 0.598
298.15 K | 0.569
303.15 K | 0.539
313.15 K | 0.485

Cc1ccccc1 + CCCCCC[N+]1(C)CCCC1.O=S(=O)([N-]S(=O)(=O)C(F)(F)F)C(F)(F)F
x1 = 1
Conditions | viscosity [mPa·s]
293.15 K | 0.598
298.15 K | 0.569
303.15 K | 0.539
313.15 K | 0.495
